# Assays:
# [1] = tested on: Antibodies to HIV-1; type: binding, human; conditions: adsorbed on latex beads, absorbance at 405 nm
# [2] = tested on: Antibodies to HIV-2; assay: EIA of dilutional series of HIV-2 positive sera; type: binding, human
# Experimental: Alternative methods of testing immunologic cross-reactivity were also used. In one such method L5 Peptides 39 and 39GC were tested by ELISA as previously described in U.S. Pat. No. 4,629,783. Briefly, stock solutions of peptides 39 and 39-GC were prepared in 6M Gu-HCl. Working dilutions of 20 µg/ml and 6 μg/ml respectively were prepared by dilution of stock solution 0 with 0.05M carbonate/bicarbonate buffer, pH 9.5. Wells of microtiter plates were filled with 100 μl of the working dilution of the peptides and allowed to stand overnight at room temperature. Coating solution was removed and 300 μl of blocking solution supra containing 0.5M ethanolamine was added for 1 hr. at room temperature. Blocking solution was removed and the plates were used immediately or allowed to dry and stored for later use.
# Plasma samples were diluted (See Table 1) in sample dilution buffer (above) and 100 μl was added to individual wells. Samples were incubated for 30 min. at 37° C., then removed and the wells were washed six times with 0.15M NaCl, 0.05% Tween 20. One hundred microliters of goat antihuman Ig-horseradish peroxidase conjugate diluted in citrate buffer, pH 7.0, 1% normal goat serum was added to each well for 30 min at 37° C. prior to washing six times as above. The ELISA assay was developed by adding 100 μl/well of substrate solution (80 μg/ml tetramethyl benzidine, 0.0015% hydrogen peroxide in citrate/phosphate buffer, pH 6.0) for 30 min. at room temperature. Reactions were stopped with the addition of 100 μl of H2SO4 per well, and the ratio of the optical density at 450 nm to 630 nm was determined by an automated ELISA reader. The cutoff value for a positive result was set at 0.225 Absorbance Units above the average absorbance obtained for three known negative samples.
# The immunoreactivity of HIV-2 peptides synthesized with protected cysteine thiol groups was determined. […] EIAs were performed as described above using viral lysates of HIV-1 and HIV-2 and peptides 39GC (HIV-1) and 41-2-3GC. Reactivity was determined for dilutions of two HIV-2 positive sera, F504282, obtained from a patient in New York, and “GOM,” provided by the Institut Pasteur.
# The assays were EIAs performed generally as described above with varying dilutions of HIV-2 positive serum specimens.
substance,measurement,setting,value
Cys-Gly-Gly-Arg-Ile-Leu-Ala-Val-Glu-Arg-Tyr-Leu-Lys-Asp-Gln-Gln-Leu-Leu-Gly-Ile-Trp-Gly-Cys*-Ser-Gly-Lys-Leu-Ile-Cys*-NH2 [Peptide 39GC],immunological reactivity compared with Peptide 39,[1],substantial improvement over Peptide 39
same,Reactivity in EIA,"[2]; HIV-2 positive serum F504282 (A), 1:5",0.049
same,Reactivity in EIA,"[2]; HIV-2 positive serum F504282 (A), 1:10",0.042
same,Reactivity in EIA,"[2]; HIV-2 positive serum F504282 (A), 1:20",0.037
same,Reactivity in EIA,"[2]; HIV-2 positive serum F504282 (A), 1:40",0.035
same,Reactivity in EIA,"[2]; HIV-2 positive serum F504282 (A), 1:80",0.033
same,Reactivity in EIA,"[2]; HIV-2 positive serum F504282 (A), 1:160",0.040
same,Reactivity in EIA,"[2]; HIV-2 positive serum F504282 (A), 1:320",0.031
same,Reactivity in EIA,"[2]; HIV-2 positive serum F504282 (A), 1:640",0.031
same,Reactivity in EIA,"[2]; HIV-2 positive serum F504282 (A), 1:1280",0.039
same,Reactivity in EIA,"[2]; HIV-2 positive serum F504282 (A), 1:2560",0.030
same,Reactivity in EIA,"[2]; HIV-2 positive serum F504282 (A), Neat",0.075
same,Reactivity in EIA,"[2]; HIV-2 positive serum GOM (B), 1:2",0.052
same,Reactivity in EIA,"[2]; HIV-2 positive serum GOM (B), 1:4",0.037
same,Reactivity in EIA,"[2]; HIV-2 positive serum GOM (B), 1:8",0.040
same,Reactivity in EIA,"[2]; HIV-2 positive serum GOM (B), 1:16",0.031
same,Reactivity in EIA,"[2]; HIV-2 positive serum GOM (B), 1:32",0.035
same,Reactivity in EIA,"[2]; HIV-2 positive serum GOM (B), 1:64",0.074
same,Reactivity in EIA,"[2]; HIV-2 positive serum GOM (B), 1:128",0.031
same,Reactivity in EIA,"[2]; HIV-2 positive serum GOM (B), 1:256",0.035
same,Reactivity in EIA,"[2]; HIV-2 positive serum GOM (B), 1:512",0.040
same,Reactivity in EIA,"[2]; HIV-2 positive serum GOM (B), 1:1024",0.037

# — US20030215788A1, “Cysteine thiol-protected peptides for use in immunoassays” (priority 1989, published 2003)
